Source: patent US8772499B2, “TRPV3 modulators” (AbbVie Inc., priority 2011, dated 2014)
Like-named read-outs stand apart in the source and are kept apart here.

Key:
human TRPV3 = target: T1, human TRPV3 (Homo sapiens, UniProt Q8NET8); assay: In vitro antagonism of recombinant human TRPV3 activation (FLIPR Tetra calcium assay); format: cell-based; details: HEK293 cells stably expressing human TRPV3, agonist 2-APB at 80 μM
T1 construct: expressed in transfected cells
T1 sequence (Q8NET8 1-790): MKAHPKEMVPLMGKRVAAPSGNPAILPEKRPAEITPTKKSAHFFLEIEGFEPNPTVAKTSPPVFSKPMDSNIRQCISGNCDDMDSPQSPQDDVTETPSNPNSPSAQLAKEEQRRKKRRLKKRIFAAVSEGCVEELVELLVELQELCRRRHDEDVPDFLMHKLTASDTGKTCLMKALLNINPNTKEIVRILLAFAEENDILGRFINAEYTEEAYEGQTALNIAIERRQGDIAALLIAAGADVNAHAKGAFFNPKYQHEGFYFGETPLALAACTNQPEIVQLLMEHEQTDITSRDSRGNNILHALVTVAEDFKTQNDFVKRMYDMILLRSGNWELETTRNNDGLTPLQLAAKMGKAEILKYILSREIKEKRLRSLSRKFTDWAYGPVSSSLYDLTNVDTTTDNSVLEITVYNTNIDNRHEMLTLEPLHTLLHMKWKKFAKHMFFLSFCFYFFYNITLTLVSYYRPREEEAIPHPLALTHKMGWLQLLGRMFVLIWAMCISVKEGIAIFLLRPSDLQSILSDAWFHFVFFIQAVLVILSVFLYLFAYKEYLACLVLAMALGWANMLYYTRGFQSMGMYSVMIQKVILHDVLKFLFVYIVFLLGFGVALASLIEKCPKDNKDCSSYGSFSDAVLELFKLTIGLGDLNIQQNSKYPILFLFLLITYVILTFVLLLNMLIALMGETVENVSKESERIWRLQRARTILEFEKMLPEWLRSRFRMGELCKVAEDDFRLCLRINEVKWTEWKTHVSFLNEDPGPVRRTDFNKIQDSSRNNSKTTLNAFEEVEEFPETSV
In short: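 Calcium flux read over a 10 min run: compound added at 10 s to Calcium-4-loaded human TRPV3-HEK293 cells, agonist 2-APB (80 μM, its EC80) after 3 min. IC50 derived from peak-minus-baseline signal as percentage of uninhibited 2-APB response, typically averaged over at least two runs.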

[1] = In vitro human microsomal stability assay; format: in vitro ADME
In short: (§1)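 Metabolic stability was followed in NADPH-supplemented incubations at 37° C., using microsomes prepared from human liver or from Sprague-Dawley rat liver.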

[2] = In vitro rat microsomal stability assay; format: in vitro ADME, rat (Sprague-Dawley)
In short: as §1

[3] = actual measured value shown parenthetically, in most cases average of at least two runs, read-out: IC50
[4] = human, microsomes, 0.5 h, 0.5 μM, pH 7.4
[5] = Sprague-Dawley, rat, microsomes, 0.5 h, 0.5 μM, pH 7.4
[6] = reported range, read-out: IC50 (range class)

## Cl.O[C@H](c1ccccn1)C1(c2ccc(Cl)c(Cl)c2)CC(F)(F)C1 [Example 111, (S)-[1-(3,4-dichlorophenyl)-3,3-difluorocyclobutyl](pyridin-2-yl)methanol hydrochloride]
Human TRPV3; [3]
  IC50: 190 nM
[1]; human liver microsomes, 0.5 μM substrate, 0.25 mg/mL microsomal protein, pH 7.4, 37° C., NADPH, 30 minutes
  HUMAN MICROSOMAL STABILITY (% REMAINING AFTER 30 MINUTES): 52%
[2]; rat liver microsomes (Sprague-Dawley), 0.5 μM substrate, 0.25 mg/mL microsomal protein, pH 7.4, 37° C., NADPH, 30 minutes
  RAT MICROSOMAL STABILITY (% REMAINING AFTER 30 MINUTES): 23%

## OC(c1ccccn1)C1(c2ccc(OC(F)(F)F)cc2)CC(F)(F)C1 (stereo not shown) [Example 112, {3,3-difluoro-1-[4-(trifluoromethoxy)phenyl]cyclobutyl}(pyridin-2-yl)-methanol]
Human TRPV3; [3]
  IC50: 300 nM
[1]; [4]
  HUMAN MICROSOMAL STABILITY (% REMAINING AFTER 30 MINUTES): 75%
[2]; [5]
  RAT MICROSOMAL STABILITY (% REMAINING AFTER 30 MINUTES): 75%

## OC(c1ccccn1)C1(c2cccc(C(F)(F)F)c2)CC(F)(F)C1 (stereo not shown) [Example 113, {3,3-difluoro-1-[3-(trifluoromethyl)phenyl]cyclobutyl}(pyridin-2-yl)-methanol]
Human TRPV3; [3]
  IC50: 260 nM
[1]; [4]
  HUMAN MICROSOMAL STABILITY (% REMAINING AFTER 30 MINUTES): 24%
[2]; [5]
  RAT MICROSOMAL STABILITY (% REMAINING AFTER 30 MINUTES): 18%

## OC(c1ccccn1)C1(c2cccc(OC(F)(F)F)c2)CC(F)(F)C1 (stereo not shown) [Example 114, {3,3-difluoro-1-[3-(trifluoromethoxy)phenyl]cyclobutyl}(pyridin-2-yl)-methanol]
Human TRPV3; [3]
  IC50: 230 nM
[1]; [4]
  HUMAN MICROSOMAL STABILITY (% REMAINING AFTER 30 MINUTES): 6.9%
[2]; [5]
  RAT MICROSOMAL STABILITY (% REMAINING AFTER 30 MINUTES): 11%

## OC(c1ccccn1)C1(c2ccc(C(F)(F)F)cn2)CCC1 (stereo not shown) [Example 115, pyridin-2-yl{1-[5-(trifluoromethyl)pyridin-2-yl]cyclobutyl}methanol]
Human TRPV3; [3]
  IC50: 19400 nM
[1]; [4]
  HUMAN MICROSOMAL STABILITY (% REMAINING AFTER 30 MINUTES): >85%
[2]; [5]
  RAT MICROSOMAL STABILITY (% REMAINING AFTER 30 MINUTES): 81%

## OC(c1ccccn1)C1(c2cc(C(F)(F)F)ccn2)CCC1 (stereo not shown) [Example 116, pyridin-2-yl{1-[4-(trifluoromethyl)pyridin-2-yl]cyclobutyl}methanol]
Human TRPV3; [3]
  IC50: 750 nM
[1]; [4]
  HUMAN MICROSOMAL STABILITY (% REMAINING AFTER 30 MINUTES): 37%
[2]; [5]
  RAT MICROSOMAL STABILITY (% REMAINING AFTER 30 MINUTES): 25%

## O=C1CC(c2ccc(Cl)c(Cl)c2)([C@H](O)c2ccccn2)C1 [Example 117, 3-(3,4-dichlorophenyl)-3-[(S)-hydroxy(pyridin-2-yl)methyl]cyclobutanone]
Human TRPV3; [3]
  IC50: 2420 nM
[1]; [4]
  HUMAN MICROSOMAL STABILITY (% REMAINING AFTER 30 MINUTES): 18%
[2]; [5]
  RAT MICROSOMAL STABILITY (% REMAINING AFTER 30 MINUTES): 50%

## Nc1cccnc1C(O)C1(c2cccc(C(F)(F)F)c2)CCC1 (stereo not shown) [Example 120, (3-aminopyridin-2-yl) {1-[3-(trifluoromethyl)phenyl]cyclobutyl}methanol]
Human TRPV3; [3]
  IC50: > 20000 nM
Human TRPV3; [6]
  IC50: > 20000 nM
[1]; [4]
  HUMAN MICROSOMAL STABILITY (% REMAINING AFTER 30 MINUTES): 1.6%
[2]; [5]
  RAT MICROSOMAL STABILITY (% REMAINING AFTER 30 MINUTES): <0.01%

## Nc1cccnc1C(O)C1(c2ccc(OC(F)(F)F)cc2)CCC1 (stereo not shown) [Example 121, (3-aminopyridin-2-yl) {1-[4-(trifluoromethoxy)phenyl]cyclobutyl}methanol]
Human TRPV3; [3]
  IC50: > 20000 nM
Human TRPV3; [6]
  IC50: > 20000 nM
[1]; [4]
  HUMAN MICROSOMAL STABILITY (% REMAINING AFTER 30 MINUTES): 41%
[2]; [5]
  RAT MICROSOMAL STABILITY (% REMAINING AFTER 30 MINUTES): 0.18%

## O[C@@H](c1ccccn1)C1(c2cc(C(F)(F)F)ccn2)CCC1 [Example 122, (R)-pyridin-2-yl{1-[4-(trifluoromethyl)pyridin-2-yl]cyclobutyl}methanol]
Human TRPV3; [3]
  IC50: > 20000 nM
Human TRPV3; [6]
  IC50: > 20000 nM
[1]; [4]
  HUMAN MICROSOMAL STABILITY (% REMAINING AFTER 30 MINUTES): 28%
[2]; [5]
  RAT MICROSOMAL STABILITY (% REMAINING AFTER 30 MINUTES): 26%

## O[C@H](c1ccccn1)C1(c2cc(C(F)(F)F)ccn2)CCC1 [Example 123, (S)-pyridin-2-yl{1-[4-(trifluoromethyl)pyridin-2-yl]cyclobutyl}methanol]
Human TRPV3; [3]
  IC50: 390 nM
[1]; [4]
  HUMAN MICROSOMAL STABILITY (% REMAINING AFTER 30 MINUTES): 21%
[2]; [5]
  RAT MICROSOMAL STABILITY (% REMAINING AFTER 30 MINUTES): 11%

## Nc1cccnc1C(O)C1(c2cccc(OC(F)(F)F)c2)CCC1 (stereo not shown) [Example 124, (3-aminopyridin-2-yl) {1-[3-(trifluoromethoxy)phenyl]cyclobutyl}methanol]
Human TRPV3; [3]
  IC50: > 20000 nM
Human TRPV3; [6]
  IC50: > 20000 nM
[1]; [4]
  HUMAN MICROSOMAL STABILITY (% REMAINING AFTER 30 MINUTES): 1.6%
[2]; [5]
  RAT MICROSOMAL STABILITY (% REMAINING AFTER 30 MINUTES): <0.01%
